We go through 7 compounds from patent US20190307771A1, “METHODS AND COMPOSITIONS FOR THE TREATMENT OF CANCER AND METABOLIC DISEASES” (THE REGENTS OF THE UNIVERSITY OF CALIFORNIA, priority 2016, published 2019).

In data set [1] the test system is primary liver cancer. To be noted: cited from earlier work.
Data set [2] concerns liver cancer cells (Huh7, Hep3B, HepG2). Nature of the data set: Apoptosis of liver cancer cells. To be noted: prevented by NUR77 siRNA.
For data set [3] the following is noted: cited from earlier work.
Data set [4] relates to liver cancer cells (Huh7, Hep3B, HepG2). To be noted: cited from earlier work; for Apoptosis of liver cancer cells: published studies.
The subject of data set [5] is Class I (HDAC1, 2, 3, and 8) and Class IIa (HDAC4, 5, 7, and 9). To be noted: cited from earlier work.
For data set [6], the system named is retinoic acid receptor beta (RARβ). Kind of data set: RARB expression in HCT116 cells (qRT-PCR). It counts as cell-based. To be noted: 24 hours, RA 10 μM, butyrate 5 mM, SAHA 5 μM. How it is done:
(§1) Total RNA was extracted with TRIzol Reagent (Invitrogen, Carlsbad, Calif.), and cDNA was generated using High Capacity RNA-to-cDNA Kit (Applied Biosystems, Carlsbad, Calif.). qRT-PCR was performed on ABI 7900HT Fast Real time PCR system using Power SYBR® Green PCR Master Mix (Applied Biosystems, Carlsbad, Calif.).
(In general: In qPCR the cycle at which signal appears reflects the starting amount.)

The test system of data set [7] is NUR77 and RARβ. Kind of data set: Immunoprecipitation/Western blot: protein acetylation of NUR77 and RARβ. To be noted: HCT116 cells; IP with anti-NUR77 or anti-RARβ, anti-acetyl lysine blot. In kind it is cell-based. An excerpt: FIG. 12A depicts the expression levels of proteins that were extracted from HCT116 cells and immunoprecipitated by anti-NUR77 and RARβ antibodies or IgG, followed by Western blot using an anti-acetyl lysine antibody. […] The mRNA levels of NUR77 target genes BRE as well as CCND2 and RARβ target genes RARβ and CYP26A1 in HCT116 cells are shown in FIG. 12C.
(§2) NUR77 and RARβ acetylation status was also studied because protein acetylation alters nuclear receptor activity^37. […] To study the effect of RA/butyrate in modulating NUR77 and RARβ transcriptional activity, ChIP-qPCR and RT-PCR were performed to determine receptor binding to transcriptional regulatory regions and mRNA levels of downstream targets, respectively.
Western blot and immunoprecipitation were performed as described previously^22. Specific antibodies used included anti-NUR77, RARβ, SIRT1, β-actin, and IgG (Santa Cruz Biotechnology, Santa Cruz, Calif.), phospho-JNK1/2, total JNK1/2, cleaved caspase3, HDAC1 and HDAC4 (Cell Signaling Technology, Beverly, Mass.), and CCNA2 (Novus Biologicals, Littleton, Colo.). To detect protein acetylation of NUR77 and RARβ, cell lysates (500 μg) were incubated with anti-NUR77, RARβ, or IgG antibody (1 μg), precipitated by adding Dynabeads (30 μl, Life Technologies, Carlsbad, Calif.), and probed with anti-Acetyl-lysine antibody (Cell Signaling Technology, Beverly, Mass.). To study the interaction between RARβ and NUR77, whole-cell lysates were precipitated with anti-RARβ or NUR77 antibody followed by Western blot using anti-NUR77 or RARβ antibody.
(In general: In western blotting, separated proteins are transferred to a membrane and probed.)

Data set [8] relates to HCT116 colon cancer cells. Kind of data set: MTT cell viability assay in HCT116 cells. In kind it is cell-based. To be noted: RA 10 μM, butyrate 5 mM, SAHA 5 μM. The procedure:
Cell viability was monitored by MTT assay.
HCT116 cells (American Type Culture Collection) were maintained in McCoy's 5a medium from Gibco (Life Technologies, Carlsbad, Calif.) with 10% FBS. Cells were plated (1×10^6 cells per 60-mm dish, 2×10^5 cells per 6-well plates, and 1×10^5 cells per 24-well plates) overnight prior to treatment or transfection.
Cells were stained with 3-(4,5-dimethylthiazol-2-O-2,5-diphenyltetrazolium bromide (MTT, Sigma-Aldrich, St. Louis, Mo.) and measured at 570 nm with Microplate Reader (Biotek, Winooski, Vt.).
(Tetrazolium dyes change colour on reduction, which living cells bring about.)

Data set [9] relates to NUR77. Kind of data set: ChIP-qPCR and RT-PCR: NUR77 binding to BRE and CCND2 and their mRNA. In kind it is cell-based. To be noted: HCT116 cells. The procedure: as §2
(§3) Chromatin immunoprecipitation (ChIP)-qPCR ChIP-qPCR was performed as described previously^21. Briefly, chromatin lysate was precleared before incubation with an anti-H3K9AC antibody (Millipore. Billerica, Mass.), anti-HDAC1 and anti-HDAC4 (Cell signaling technology, Beverly, Mass.) or anti-SIRT1 antibody (Santa Cruz Biotechnology, Santa Cruz, Calif.). IgG (Santa Cruz Biotechnology, Santa Cruz, Calif.) and RNA Polymerase II antibody (Millipore, Billerica, Mass.) were used as negative and positive controls, respectively. Samples were incubated with Dynase beads at 4° C. overnight followed by de-crosslinking and purification. DNA fragments generated served as templates for qPCR using Power SYBR1 Green PCR Master Mix.

The test system of data set [10] is Gpr41, Gpr43, Gpr109a, Pgc1α, Pepck, Fas. Kind of data set: Ileal and hepatic mRNA levels in mice after oral gavage. To be noted: RA 15 mg/kg and/or butyrate 500 mg/kg, oral gavage every other day for one week. In kind it is in vivo, C57BL/6 mice.
The test system of data set [11] is NUR77 and RARβ. Nature of the data set: Induction and localization of NUR77 and RARβ in HCT116 cells. It counts as cell-based. To be noted: 48 hours, RA 10 μM, butyrate 5 mM, SAHA 5 μM, EGF 32 nM. The procedure:
Proteins were immunoprecipitated by anti-NUR77 or anti-RARβ antibodies, or IgG, followed by Western blot using anti-RARβ or anti-NUR77 antibodies.
To study the effect of miR-22 in induction of cytosolic NUR77 by RA/butyrate, adenoviral-delivery of miR-22 inhibitors tagged with green fluorescence (adeno-miR-22 inhibitor-GFP, Applied Biological Materials Inc, Richond, BC) were used to infect HCT116 cells. At 48 hours post adenoviral infection, cells were treated with RA (10 μM) plus butyrate (5 mM) or DMSO for 24 hours. […] Cells were mounted in ProLong® Gold Antifade Reagent with DAPI (4′,6-diamidino-2-phenylindole, Life Technologies, Carlsbad, Calif.) and imaged under Keyence BZ-9000 microscope.

Data set [12] has as its system RARB and NUR77 genes. Nature of the data set: ChIP-qPCR: HDAC recruitment and H3K9 acetylation at RARB and NUR77 genes in HCT116 cells. It counts as cell-based. To be noted: RA 10 μM, butyrate 5 mM, SAHA 5 μM. How it is done: Cell lysates were used for ChIP with antibodies specific for HDAC1, HDAC4, SIRT1, or acetylated H3K9, followed by qPCR using primers specific for the RARB and NUR77 genes. DMSO treated cells and IP using IgG were included as negative controls. […]inding was expressed relative to the IgG negative controls.
as §3

Data set [13] deals with HDAC1, HDAC4, SIRT1, cyclin A2 (CCNA2). Nature of the data set: Western blot of protein deacetylases and cyclin A2 in HCT116 cells. To be noted: 24 hours, RA 10 μM, butyrate 5 mM, SAHA 5 μM. In kind it is cell-based.
Data set [14] deals with RARβ. Nature of the data set: ChIP-qPCR: RARβ binding to DR5 motif upstream of RARβ and CYP26A1 genes. In kind it is cell-based. To be noted: HCT116 cells. How it is done:
as §2, §3

The subject of data set [15] is miR-22. Nature of the data set: miR-22 expression in HCT116 cells (qRT-PCR). In kind it is cell-based. To be noted: 24 hours, RA 10 μM, butyrate 5 mM, propionate 10 mM, valerate 10 mM, SAHA 5 μM. The procedure: To study the effect of RA and HDAC inhibitors on miR-22 expression, HCT116 cells were treated with RA, butyrate, propionate, valerate, and SAHA. The SCFA concentrations used were within physiologic ranges^35.
as §1

For data set [16] the following is noted: FXR KO mice, depletion of BAs; cited from earlier work.
The conditions of data set [17]: T2DM and NAFLD patients; cited from earlier work.
Data set [18] deals with miR-22. Nature of the data set: miR-22 induction by bile acids, FXR agonist and vitamin D3. To be noted: unpublished data.
For data set [19] the following is noted: cited from earlier work. The source holds these as a separate data set.
The test system of data set [20] is DLD-1 colon cancer cells. Kind of data set: Cell viability of DLD-1 cells. To be noted: 48 hours, RA 10 μM, butyrate 5 mM, propionate 10 mM, valerate 10 mM, SAHA 5 μM, vs. DMSO.
Protocol: HCT116 and DLD-1 colon cancer cells were treated with dimethyl sulfoxide (DMSO) only (as a negative control), RA (10 μM), Fenretinide (10 μM), or an HDAC inhibitor. […] SCFAs were selected from butyrate (5 mM), propionate (10 mM), and valerate (10 mM). Some HCT116 and DLD-1 cells were treated separately with a combination of RA and one of the SCFAs. Cells were treated for 48 hours before viability was assessed.

Entries after “also recorded” stand apart in the source; their conditions may differ.

Consider `CNC(=O)c1cc(Oc2ccc(NC(=O)Nc3ccc(Cl)c(C(F)(F)F)c3)cc2)ccn1` [sorafenib], for which the Increase of survival in data set [1] was 6 months.
For `CC1=C(/C=C/C(C)=C/C=C/C(C)=C/C(=O)Nc2ccc(O)cc2)C(C)(C)CCC1` [fenretinide, N-(4-hydroxyphenyl) retinamide], the “Apoptosis of Huh7 cells” value in data set [2] is given as “induced apoptosis of Huh7 cells”. Moreover, the Tumor response entry in [3] (NCI case report, advanced cutaneous T-cell lymphoma patient) is reported as “tumor response”. Also, the “Stabilization of the disease” value in [3] (Phase II, small cell lung cancer) is reported as 24 % of the patients. In addition, the Tolerability entry in data set [3] (breast cancer chemoprevention study (3000 patients, 5 year), Phase II small cell lung cancer) is “well tolerated in humans; also recorded: well tolerated in patients with small cell lung cancer”. Besides, in [4] (HepG2 vs. Huh7 and Hep3B), the “Apoptotic effect in HepG2” value is “resistant to the apoptotic effect”. Moreover, the “Apoptosis of liver cancer cells” value in data set [4] is “effectively induces apoptosis of liver cancer cells; also recorded: much better apoptosis inducer than RA”.
In the case of `CCCC(=O)[O-].[Na+]` [butyrate, sodium butyrate], the “Inhibition of HDAC classes” value in data set [5] was “inhibit Class I (HDAC1, 2, 3, and 8) and Class IIa (HDAC4, 5, 7, and 9)”. Further, the “RARB (RARβ) expression / transcription” value in data set [6] is recorded as “upregulated”. Also, the “Acetylated NUR77 and RARβ” value in [7] is given as “only increased acetylated NUR77”. Further, the “Cell viability (MTT assay)” value in data set [8] (24 hours) is “reduced cell viability”. In data set [8] (48 hours, propionate 10 mM, valerate 10 mM, vs. DMSO), the Cell viability entry was “Markedly reduced cell viability”. Besides, the “NUR77 binding to BRE and CCND2 promoter regions and their mRNA levels (NUR77 transcriptional activity)” value in [9] is on record as “reduced NUR77 binding”. For the same compound, in [10], the “Expression of Gpr41 and Gpr43” value is recorded as “could induce the expression”; the “Expression of Gpr109a” value is on record as “induced Gpr109a”. Besides, the “Induction and localization of NUR77 and RARβ (immunostaining)” value in data set [11] was “markedly induced NUR77 and RARβ”. Besides, in [12] (24 hours), the “H3K9 acetylation of NUR77 and RARβ genes (ChIP-qPCR)” value is “increased H3K9 acetylation”; the “Recruitment of HDAC1, HDAC4, and SIRT1 to the regulatory region of NUR77 and RARβ (ChIP-qPCR)” value is “decreased recruitment of HDAC1, HDAC4, and SIRT1”. Also, in data set [12], the “Histone acetylation (H3K9Ac) in the gene encoding RARβ (ChIP-qPCR)” value was “increased histone acetylation”; the “Recruitment of HDAC4 and SIRT1 to the RARB gene (ChIP-qPCR)” value is “reduced the recruitment of HDAC4 and SIRT1; also recorded: decreased the recruitment of HDAC4 and SIRT1”. In data set [13], the “Protein levels of HDAC1, HDAC4, SIRT1, and cyclin A2 (CCNA2)” value is “reduced HDAC1, HDAC4, SIRT1, and CCNA2 protein levels”. In [14], the “Increase of RARβ binding to the DR5 motif upstream of RARβ and CYP26A1 genes” value is listed as 4 folds. In addition, the miR-22 expression level result in [15] is “upregulated; also recorded: induce miR-22; also recorded: induced; also recorded: increased miR-22 level”.
cholestyramine: the Liver cancer formation entry in [16] was “prevented liver cancer formation”.
Turning to `O=C(CCCCCN1C(=O)c2cccc3cccc(c23)C1=O)NO` [Scriptaid], the “Apoptosis of Huh7 cells” value in [2] is “induced apoptosis of Huh7 cells”.
Regarding `CC[C@H]1[C@@H](O)[C@@H]2[C@H](CC[C@]3(C)[C@@H]([C@H](C)CCC(=O)O)CC[C@@H]23)[C@@]2(C)CC[C@@H](O)C[C@@H]12` [obetacholic acid], the “Insulin sensitivity, liver inflammation and fibrosis” value in data set [17] is “improves insulin sensitivity and reduces liver inflammation as well as fibrosis”. In data set [18], the miR-22 induction entry is “effective in inducing miR-22”.
With `CC1=C(/C=C/C(C)=C/C=C/C(C)=C/C(=O)O)C(C)(C)CCC1` [RA, all-trans retinoic acid], in data set [19] (RA prior to liver resection), the “Microbiota phenotype, metabolism and liver regeneration” value is listed as “lean microbiota phenotype, improved metabolism as well as accelerated liver regeneration”. Besides, the “Ratio of Firmicutes to Bacteroidetes” value in data set [19] (one day after liver resection) is on record as “reduced ratio of Firmicutes to Bacteroidetes”. Besides, the “RARB (RARβ) expression / transcription” value in data set [6] is recorded as “upregulated”. In addition, in data set [20], the Cell viability entry is recorded as “reduced cell viability”. Further, in [9], the “NUR77 binding to BRE and CCND2 promoter regions and their mRNA levels (NUR77 transcriptional activity)” value is on record as “not RA alone”. Besides, the “Expression of Gpr41 and Gpr43” value in data set [10] is listed as “could induce the expression”. Moreover, the “Induction and localization of NUR77 and RARβ (immunostaining)” value in data set [11] is listed as “modestly induced both receptors in the nucleus”. The “Recruitment of HDAC4 and SIRT1 to the RARB gene (ChIP-qPCR)” value in data set [12] is “not”. For the same compound, the “Protein levels of HDAC1, HDAC4, SIRT1, and cyclin A2 (CCNA2)” value in data set [13] is “reduced HDAC1, HDAC4, SIRT1, and CCNA2 protein levels”. In addition, the miR-22 expression level entry in [15] is reported as “upregulated; also recorded: induced miR-22 expression; also recorded: could induce miR-22; also recorded: increased miR-22 level”. The “Apoptosis of liver cancer cells” value in data set [4] is on record as “not as effective as fenretinide in inducing apoptosis”.
